Structures are written as SMILES. pEC50: −log10 of the molar value. Numbered stars: 1 amine (or outer) side, 2 acyl side, 3 side chain; on linkers, the order of the positions; unused ones are H or OH. Square brackets hold non-standard residues; d marks the D form. Side chains are listed from the residue outwards. Peptide text beside a SMILES is read from it. * marks the point of attachment. C18 diacid = O=C(O)CCCCCCCCCCCCCCCCC(=O)*; γGlu = O=C(O)[C@H](CCC(=O)[*:2])N[*:1]; Ac4c = NC1(C(=O)O)CCC1; AEEA = NCCOCCOCC(=O)O; Aib = CC(C)(N)C(=O)O

This assay deals with T1, human glucagon receptor (Homo sapiens, UniProt P47871).
T1 construct: expressed in transfected cells; host or cells: BHK cells (parent BHK570, CRE luciferase clone BHK/KZ10-20-48), clone pLJ6'-4-25
T1 sequence (P47871 26-477): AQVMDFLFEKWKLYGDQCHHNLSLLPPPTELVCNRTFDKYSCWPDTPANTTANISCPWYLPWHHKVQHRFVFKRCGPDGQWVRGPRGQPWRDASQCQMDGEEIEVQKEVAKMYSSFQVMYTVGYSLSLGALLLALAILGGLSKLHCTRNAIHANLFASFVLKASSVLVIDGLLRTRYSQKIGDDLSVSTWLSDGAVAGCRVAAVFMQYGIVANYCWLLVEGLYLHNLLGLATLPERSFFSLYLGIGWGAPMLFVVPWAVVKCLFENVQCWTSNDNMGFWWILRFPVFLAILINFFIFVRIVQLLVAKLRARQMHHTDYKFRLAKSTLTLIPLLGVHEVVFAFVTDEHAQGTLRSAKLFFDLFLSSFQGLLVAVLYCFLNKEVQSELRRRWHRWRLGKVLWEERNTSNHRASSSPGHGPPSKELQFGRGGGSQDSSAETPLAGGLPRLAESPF
Put plainly: Glucagon receptor potency, CRE luciferase reporter gene assay in BHK cells. It counts as cell-based. The conditions noted are these: BHK cells expressing human glucagon receptor, read-out: EC50 GlucR. The protocol: The purpose of this example was to test the potency, of the glucagon derivatives of the invention, in vitro. The in vitro potency is the measure of human GLP-1 receptor or glucagon receptor activation, respectively, in a whole cell assay.
In vitro potency was determined by measuring the response of human GLP-1 or glucagon receptor, respectively, in a reporter gene assay. The assay was performed in a stably transfected BHK cell line that expresses either the human GLP-1 receptor or the human glucagon receptor and contains the DNA for the cAMP response element (CRE) coupled to a promoter and the gene for firefly luciferase (CRE luciferase). […] When assay incubation was completed, the luciferase substrate (luciferin) was added and the enzyme converted luciferin to oxyluciferin and produces bioluminescence. The luminescence was measured as the readout for the assay.
The cells used in this assay (clone pLJ6′-4-25) were BHK cells with BHK570 as a parent cell line expressing the CRE luciferase gene (clone BHK/KZ10-20-48) and were established by further transfection with the human glucagon receptor (clone pLJ6′ in pHZ-1 vector).
The cells were cultured at 5% CO2 in DMEM medium with 10% FBS, 1×GlutaMAX, 1 mg/ml G418, 240 nM MTX (methotrexate) and 1% pen/strep (penicillin/streptomycin). They were aliquoted and stored in liquid nitrogen. Before each assay, an aliquot was taken up and washed three times in PBS before being suspended at the desired concentration in assay medium. For 96-well plates the suspension was made to give a final concentration of 5×10EE3 cells/well.
The following chemicals were used in the assay: Pluronic F-68 (10%) (Gibco 2404), ovalbumin (Sigma A5503), DMEM w/o phenol red (Gibco 11880-028), 1 M Hepes (Gibco 15630), Glutamax 100× (Gibco 35050) and steadylite plus (PerkinElmer 6016757).
Assay Medium consisted of DMEM w/o phenol red, 10 mM Hepes, 1× GlutaMAX, 2% Ovalbumin and 0.2% Pluronic F-68.
Cell stocks were thawed in a 37° C. water bath. Cells were washed three times in PBS. The cells were counted and adjusted to 5×10EE3 cells/50 μl (1×10EE5 cells/ml) in Assay Medium. A 50 μl aliquot of cells was transferred to each well in the assay plate.
Stocks of the test compounds and reference compounds were diluted to a concentration of […] in Assay Medium. Compounds were diluted 10-fold to give the following concentrations: 2×10EE-6 M, 2×10EE-7 M, 2×10EE-8 M; 2×10EE-9 M, 2×10EE-10 M, 2×10EE-11 M, 2×10EE-12 M and 2×10EE-13 M. For each compound a blank assay medium control was also included.
A 50 μl aliquot of compound or blank was transferred from the dilution plate to the assay plate. Compounds were tested at the following final concentrations: 1×10EE-6 M, 1×10EE-7 M, 1×10EE-8 M; 1×10EE-9 M, 1×10EE-10 M, 1×10EE-11 M and 1×10EE-12 M and 1×10EE-13 M.
The assay plate was incubated for 3 h in a 5% CO2 incubator at 37° C. The assay plate was removed from the incubator and allowed to stand at room temperature for 15 min. A 100 μl aliquot of steadylite plus reagent was added to each well of the assay plate (reagent is light sensitive). Each assay plate was covered with aluminum foil to protect it from light and shaken for 30 min at room temperature. Each assay plate was read in a Perkin Elmer TopCount NXT instrument.
The data from the TopCount instrument was transferred to GraphPad Prism software. The software performed a non-linear regression (log(agonist) vs response-Variable slope (four parameter)). EC50 values were calculated by the software and reported in pM.
Background: Reporter assays use an easily measured gene product as a stand-in for the process of interest.
For `CC(C)C[C@H](NC(=O)[C@H](Cc1ccc(O)cc1)NC(=O)[C@H](CCCCN)NC(=O)[C@H](CO)NC(=O)[C@H](CC(C)C)NC(=O)[C@H](CC(=O)O)NC(=O)[C@H](CO)NC(=O)[C@@H](NC(=O)[C@H](Cc1ccccc1)NC(=O)[C@@H](NC(=O)CNC(=O)[C@H](CCC(N)=O)NC(=O)C(C)(C)NC(=O)[C@@H](N)Cc1c[nH]cn1)[C@@H](C)O)[C@@H](C)O)C(=O)N[C@@H](CCC(=O)O)C(=O)N[C@@H](CO)C(=O)N[C@@H](CCCCN)C(=O)N[C@@H](CCCNC(=N)N)C(=O)N[C@@H](C)C(=O)N[C@@H](CCCNC(=N)N)C(=O)N[C@@H](CCC(=O)O)C(=O)N[C@@H](Cc1ccccc1)C(=O)N[C@H](C(=O)N[C@@H](CCC(N)=O)C(=O)N[C@@H](Cc1c[nH]c2ccccc12)C(=O)N[C@@H](CC(C)C)C(=O)N[C@@H](CC(C)C)C(=O)N[C@@H](CCCCNC(=O)CC[C@H](NC(=O)CC[C@H](NC(=O)[C@H](CO)NC(=O)[C@H](CCC(=O)O)NC(=O)[C@H](CO)NC(=O)CC[C@H](NC(=O)CC[C@H](NC(=O)CCCCCCCCCCCCCCCCC(=O)O)C(=O)O)C(=O)O)C(=O)O)C(=O)O)C(=O)N[C@H](C(N)=O)[C@@H](C)O)C(C)C` [Example 54, N^ε28-[(4S)-4-carboxy-4-[[(4S)-4-carboxy-4-[[(2S)-2-[[(2S)-4-carboxy-2-[[(2S)-2-[[(4S)-4-carboxy-4-[[(4S)-4-carboxy-4-(17-carboxyheptadecanoylamino)butanoyl]amino]butanoyl]amino]-3-hydroxypropanoyl]amino]butanoyl]amino]-3-hydroxypropanoyl]amino]butanoyl]amino]butanoyl]-[Aib2,Leu10,Glu15,Lys17,Arg20,Glu21,Leu27,Lys28]-Glucagon amide] (H-H[Aib]QGTFTSDLSKYLESKRAREFVQWLLK([γGlu-γGlu-Ser-Glu-Ser-γGlu-γGlu-C18 diacid])T-NH2; N-terminus assumed), the negative logarithm of the EC50 (pEC50) was 10.90.

On to `CC(C)C[C@H](NC(=O)[C@H](Cc1c[nH]c2ccccc12)NC(=O)[C@H](C)NC(=O)[C@@H](NC(=O)[C@H](Cc1ccccc1)NC(=O)[C@H](CCC(=O)O)NC(=O)[C@H](CCCNC(=N)N)NC(=O)[C@H](C)NC(=O)[C@H](CCCNC(=N)N)NC(=O)[C@H](CCCNC(=N)N)NC(=O)[C@H](CO)NC(=O)[C@H](CCC(=O)O)NC(=O)[C@H](CC(C)C)NC(=O)[C@H](Cc1ccc(O)cc1)NC(=O)[C@H](CCCCN)NC(=O)[C@H](CO)NC(=O)[C@H](CC(C)C)NC(=O)[C@H](CC(=O)O)NC(=O)[C@H](CO)NC(=O)[C@@H](NC(=O)[C@H](Cc1ccccc1)NC(=O)[C@@H](NC(=O)CNC(=O)[C@H](Cc1c[nH]cn1)NC(=O)C(C)(C)NC(=O)[C@@H](N)Cc1c[nH]cn1)[C@@H](C)O)[C@@H](C)O)C(C)C)C(=O)N[C@@H](CC(C)C)C(=O)N[C@@H](CCCCNC(=O)CC[C@H](NC(=O)COCCOCCNC(=O)COCCOCCNC(=O)CC[C@H](NC(=O)CC[C@H](NC(=O)CCCCCCCCCCCCCCCCC(=O)O)C(=O)O)C(=O)O)C(=O)O)C(=O)N[C@H](C(N)=O)[C@@H](C)O` [Example 31, N^ε28-[(4S)-4-carboxy-4-[[2-[2-[2-[[2-[2-[2-[[(4S)-4-carboxy-4-[[(4S)-4-carboxy-4-(17-carboxyheptadecanoylamino)butanoyl]amino]butanoyl]amino]ethoxy]ethoxy]acetyl]amino]ethoxy]ethoxy]acetyl]amino]butanoyl]-[Aib2,His3,Leu10,Glu15,Arg20,Glu21,Ala24,Leu27, Lys28]-Glucagon amide] (H-H[Aib]HGTFTSDLSKYLESRRAREFVAWLLK([γGlu-AEEA-AEEA-γGlu-γGlu-C18 diacid])T-NH2; N-terminus assumed), for which the pEC50 was 11.54.

Consider `CC(C)C[C@H](NC(=O)[C@H](CC(=O)O)NC(=O)[C@H](CC(C)C)NC(=O)[C@H](Cc1ccc(O)cc1)NC(=O)[C@H](CCCCN)NC(=O)[C@H](CO)NC(=O)[C@H](CC(C)C)NC(=O)[C@H](CC(=O)O)NC(=O)[C@H](CO)NC(=O)[C@@H](NC(=O)[C@H](Cc1ccccc1)NC(=O)[C@@H](NC(=O)CNC(=O)[C@H](CCC(N)=O)NC(=O)C1(NC(=O)[C@@H](N)Cc2c[nH]cn2)CCC1)[C@@H](C)O)[C@@H](C)O)C(=O)N[C@@H](CCCCN)C(=O)N[C@@H](CCCNC(=N)N)C(=O)N[C@@H](C)C(=O)N[C@@H](CCCNC(=N)N)C(=O)N[C@@H](CCC(=O)O)C(=O)N[C@@H](Cc1ccccc1)C(=O)N[C@H](C(=O)N[C@@H](CCC(N)=O)C(=O)N[C@@H](Cc1c[nH]c2ccccc12)C(=O)N[C@@H](CC(C)C)C(=O)N[C@@H](CC(C)C)C(=O)N[C@@H](CCCCNC(=O)CC[C@H](NC(=O)CC[C@H](NC(=O)COCCOCCNC(=O)COCCOCCNC(=O)CC[C@H](NC(=O)CC[C@H](NC(=O)CCCCCCCCCCCCCCCCC(=O)O)C(=O)O)C(=O)O)C(=O)O)C(=O)O)C(=O)N[C@H](C(N)=O)[C@@H](C)O)C(C)C` [Example 47, N^ε28-[(4S)-4-carboxy-4-[[(4S)-4-carboxy-4-[[2-[2-[2-[[2-[2-[2-[[(4S)-4-carboxy-4-[[(4S)-4-carboxy-4-(17-carboxyheptadecanoylamino)butanoyl]amino]butanoyl]amino]ethoxy]ethoxy]acetyl]amino]ethoxy]ethoxy]acetyl]amino]butanoyl]amino]butanoyl]-[Acb2,Leu10,Leu16,Lys17,Arg20,Glu21,Leu27,Lys28]-Glucagon amide] (H-H[Ac4c]QGTFTSDLSKYLDLKRAREFVQWLLK([γGlu-γGlu-AEEA-AEEA-γGlu-γGlu-C18 diacid])T-NH2; N-terminus assumed), for which the negative logarithm of the EC50 (pEC50) was 11.30.

`CC(C)C[C@H](NC(=O)[C@H](Cc1ccc(O)cc1)NC(=O)[C@H](CCCNC(=N)N)NC(=O)[C@H](CO)NC(=O)[C@H](CC(C)C)NC(=O)[C@H](CC(=O)O)NC(=O)[C@H](CO)NC(=O)[C@@H](NC(=O)[C@H](Cc1ccccc1)NC(=O)[C@@H](NC(=O)CNC(=O)[C@H](CCC(N)=O)NC(=O)C1(NC(=O)[C@@H](N)Cc2c[nH]cn2)CCC1)[C@@H](C)O)[C@@H](C)O)C(=O)N[C@@H](CCC(=O)O)C(=O)N[C@@H](CO)C(=O)N[C@@H](CCCNC(=N)N)C(=O)N[C@@H](CCCNC(=N)N)C(=O)N[C@@H](C)C(=O)N[C@@H](CCCNC(=N)N)C(=O)N[C@@H](CCC(=O)O)C(=O)N[C@@H](Cc1ccccc1)C(=O)N[C@H](C(=O)N[C@@H](CCC(N)=O)C(=O)N[C@@H](Cc1c[nH]c2ccccc12)C(=O)N[C@@H](CC(C)C)C(=O)N[C@@H](CC(C)C)C(=O)N[C@@H](CCCCNC(=O)CC[C@H](NC(=O)CC[C@H](NC(=O)COCCOCCNC(=O)COCCOCCNC(=O)CC[C@H](NC(=O)CC[C@H](NC(=O)CCCCCCCCCCCCCCCCC(=O)O)C(=O)O)C(=O)O)C(=O)O)C(=O)O)C(=O)N[C@H](C(N)=O)[C@@H](C)O)C(C)C` [Example 59, N^ε28-[(4S)-4-carboxy-4-[[(4S)-4-carboxy-4-[[2-[2-[2-[[2-[2-[2-[[(4S)-4-carboxy-4-[[(4S)-4-carboxy-4-(17-carboxyheptadecanoylamino)butanoyl]amino]butanoyl]amino]ethoxy]ethoxy]acetyl]amino]ethoxy]ethoxy]acetyl]amino]butanoyl]amino]butanoyl]-[Acb2,Leu10,Arg12,Glu15,Arg20,Glu21,Leu27,Lys28]-Glucagon amide] (H-H[Ac4c]QGTFTSDLSRYLESRRAREFVQWLLK([γGlu-γGlu-AEEA-AEEA-γGlu-γGlu-C18 diacid])T-NH2; N-terminus assumed): the pEC50 was 10.77.

What is called pEC50 is the EC50 on a negative log10 scale, so that one unit is a factor of ten.

The record behind these values is US9474790B2, “Stable, protracted GLP-1/glucagon receptor co-agonists for medical use” (Novo Nordisk A/S, priority 2013, dated 2016).
